Assay results published in patent US9351974B2, “Substituted pteridinones for the treatment of cancer” (OSI Pharmaceuticals, LLC, priority 2011, dated 2016).

These compounds were tested against T1, His-tagged full-length RSK2 (RPS6KA3) (Homo sapiens, UniProt P51812) (assay: RSK2 Omnia Assay for compound IC50 determination). Conditions: ATP 15 μM, n=2, read-out: Mean RSK2 Biochem IC50.
T1 construct: His-tagged full-length RSK2 (RPS6KA3, Invitrogen PV3323); His; purchased Invitrogen PV3323
Format: biochemical
Procedure, shortened: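 Initial-rate slopes from continuous kinetic reads were fitted to a four-parameter equation for IC50 (n=2). Ki was then derived by Cheng-Prusoff assuming ATP-competitive inhibition. Reactions contained 15 μM ATP (Km 16.3 μM), 5 μM Omnia ST Peptide 6, and […] in 50 mM HEPES pH 7.5, 10 mM MgCl2, 1 mM DTT, 1% DMSO. Compounds spanned 11 threefold steps, […] final.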

T1 sequence (P51812 whole entry): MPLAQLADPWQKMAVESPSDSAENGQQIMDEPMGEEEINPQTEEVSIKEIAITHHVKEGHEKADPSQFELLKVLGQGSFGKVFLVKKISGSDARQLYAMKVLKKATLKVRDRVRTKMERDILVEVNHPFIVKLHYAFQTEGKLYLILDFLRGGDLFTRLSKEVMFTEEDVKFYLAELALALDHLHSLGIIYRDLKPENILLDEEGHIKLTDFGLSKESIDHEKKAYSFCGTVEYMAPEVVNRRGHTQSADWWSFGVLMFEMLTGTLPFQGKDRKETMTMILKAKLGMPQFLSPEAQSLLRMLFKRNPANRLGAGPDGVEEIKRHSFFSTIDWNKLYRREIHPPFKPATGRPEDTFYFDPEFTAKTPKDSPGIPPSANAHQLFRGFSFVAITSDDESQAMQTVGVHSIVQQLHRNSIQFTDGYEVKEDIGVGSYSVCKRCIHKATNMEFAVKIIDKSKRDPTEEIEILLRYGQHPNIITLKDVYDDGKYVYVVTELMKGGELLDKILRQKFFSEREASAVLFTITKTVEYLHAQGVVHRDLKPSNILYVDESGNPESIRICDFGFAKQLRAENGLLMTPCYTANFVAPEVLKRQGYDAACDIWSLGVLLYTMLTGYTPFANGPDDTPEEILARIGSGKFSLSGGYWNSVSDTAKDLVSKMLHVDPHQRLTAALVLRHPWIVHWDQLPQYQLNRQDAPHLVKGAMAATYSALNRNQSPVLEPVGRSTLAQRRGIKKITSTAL

| SMILES | IC50 |
| --- | --- |
| COc1ccc(N2C(=O)[C@@H](C)N([C@H]3CC[C@H](OC)CC3)c3nc(Nc4cnc5[nH]ncc5c4)ncc32)cc1C#N [compound 234, 2-methoxy-5-[(7R)-8-(trans-4-methoxycyclohexyl)-7-methyl-6-oxo-2-(1H-pyrazolo[3,4-b]pyridin-5-ylamino)-7,8-dihydropteridin-5(6H)-yl]benzonitrile] | ≤ 100 nM |
| C[C@@H]1C(=O)N(c2cccc(C#N)c2)c2cnc(Nc3ccc(C#N)cc3)nc2N1C1CCC(F)(F)CC1 [compound 274, 3-[(7R)-2-[(4-cyanophenyl)amino]-8-(4,4-difluorocyclohexyl)-7-methyl-6-oxo-7,8-dihydropteridin-5(6H)-yl]benzonitrile] | 100 to 1000 nM |
| C[C@@H]1C(=O)N(c2cccc(F)c2)c2cnc(Nc3cc(F)c4[nH]ncc4c3)nc2N1C1CCC(F)(F)CC1 [compound 263, (7R)-8-(4,4-difluorocyclohexyl)-2-[(7-fluoro-1H-indazol-5-yl)amino]-5-(3-fluorophenyl)-7-methyl-7,8-dihydropteridin-6(5H)-one] | ≤ 100 nM |
| C[C@@H]1C(=O)N(c2cccc(C#N)c2)c2cnc(Nc3cc4cn[nH]c4cc3F)nc2N1C1CCCCC1 [Example 56, 3-[(7R)-8-cyclohexyl-2-[(6-fluoro-1H-indazol-5-yl)amino]-7-methyl-6-oxo-7,8-dihydropteridin-5(6H)-yl]benzonitrile] | ≤ 100 nM |
| C[C@@H]1C(=O)N(c2cccnc2)c2cnc(Nc3cc(F)c4[nH]ncc4c3)nc2N1C1CCC2(CC1)CC2 [Example 298, (7R)-2-[(7-fluoro-1H-indazol-5-yl)amino]-7-methyl-5-(pyridin-3-yl)-8-(spiro[2.5]oct-6-yl)-7,8-dihydropteridin-6(5H)-one] | ≤ 100 nM |
| C[C@@H]1C(=O)N(c2cccc(CO)c2)c2cnc(Nc3ccc4[nH]ncc4c3)nc2N1C1CCCCC1 [compound 127, (7R)-8-cyclohexyl-5-[3-(hydroxymethyl)phenyl]-2-(1H-indazol-5-ylamino)-7-methyl-7,8-dihydropteridin-6(5H)-one] | ≤ 100 nM |
| C[C@@H]1C(=O)N(c2ccc(N(C)C)nc2)c2cnc(Nc3cc(F)c4[nH]ncc4c3)nc2N1C1CCCCC1 [compound 143, (7R)-8-cyclohexyl-5-[6-(dimethylamino)pyridin-3-yl]-2-[(7-fluoro-1H-indazol-5-yl)amino]-7-methyl-7,8-dihydropteridin-6(5H)-one] | ≤ 100 nM |
| C[C@@H]1C(=O)N(c2cccc(C#N)c2)c2cnc(Nc3ccc(C(=O)O)cc3)nc2N1C1CCC(F)(F)CC1 [compound 269, 4-{[(7R)-5-(3-cyanophenyl)-8-(4,4-difluorocyclohexyl)-7-methyl-6-oxo-5,6,7,8-tetrahydropteridin-2-yl]amino}benzoic acid] | ≤ 100 nM |
| C[C@@H]1C(=O)N(c2ccc(N3CCCC3)nc2)c2cnc(Nc3cc(F)c4[nH]ncc4c3)nc2N1C1CCC(C)(C)CC1 [Example 214, (7R)-8-(4,4-dimethylcyclohexyl)-2-[(7-fluoro-1H-indazol-5-yl)amino]-7-methyl-5-[6-(pyrrolidin-1-yl)pyridin-3-yl]-7,8-dihydropteridin-6(5H)-one] | ≤ 100 nM |
| COc1ccc(N2C(=O)[C@@H](C)N(C3CCCCC3)c3nc(Nc4ccc5[nH]ncc5c4)ncc32)cn1 [Example 48, (7R)-8-cyclohexyl-2-(1H-indazol-5-ylamino)-5-(6-methoxypyridin-3-yl)-7-methyl-7,8-dihydropteridin-6(5H)-one] | ≤ 100 nM |
| C[C@@H]1C(=O)N(c2ccc(N3CCN(C)CC3)c(C#N)c2)c2cnc(Nc3cc(F)c4[nH]ncc4c3)nc2N1[C@H]1CC[C@H](C)CC1 [compound 251, 5-[(7R)-2-[(7-fluoro-1H-indazol-5-yl)amino]-7-methyl-8-(trans-4-methylcyclohexyl)-6-oxo-7,8-dihydropteridin-5(6H)-yl]-2-(4-methylpiperazin-1-yl)benzonitrile] | ≤ 100 nM |
| C[C@@H]1C(=O)N(c2ccc(N3CCN(C)CC3)c(C#N)c2)c2cnc(Nc3cc(F)c4[nH]ncc4c3)nc2N1C1CCCCC1 [compound 173, 5-[(7R)-8-cyclohexyl-2-[(7-fluoro-1H-indazol-5-yl)amino]-7-methyl-6-oxo-7,8-dihydropteridin-5(6H)-yl]-2-(4-methylpiperazin-1-yl)benzonitrile] | ≤ 100 nM |
| C[C@@H]1C(=O)N(c2ccc(N(C)C)cc2)c2cnc(Nc3ccc4[nH]ncc4c3)nc2N1C1CCCCC1 [Example 41, (7R)-8-cyclohexyl-5-[4-(dimethylamino)phenyl]-2-(1H-indazol-5-ylamino)-7-methyl-7,8-dihydropteridin-6(5H)-one] | ≤ 100 nM |

Results, then the compound that gave them:

| IC50 | SMILES |
| --- | --- |
| ≤ 100 nM | C[C@@H]1C(=O)N(c2cccc(C#N)c2)c2cnc(Nc3cc(F)c(O)c(F)c3)nc2N1C1CCC(F)(F)CC1 [compound 276, 3-[(7R)-8-(4,4-difluorocyclohexyl)-2-[(3,5-difluoro-4-hydroxyphenyl)amino]-7-methyl-6-oxo-7,8-dihydropteridin-5(6H)-yl]benzonitrile] |
| ≤ 100 nM | C[C@@H]1C(=O)N(c2cccc(C#N)c2)c2cnc(Nc3cc(F)c4[nH]ncc4c3)nc2N1C1CCCCC1 [compound 106, 3-[(7R)-8-cyclohexyl-2-[(7-fluoro-1H-indazol-5-yl)amino]-7-methyl-6-oxo-7,8-dihydropteridin-5(6H)-yl]benzonitrile] |
| ≤ 100 nM | C[C@@H]1C(=O)N(c2cccc(C#N)c2)c2cnc(Nc3cc(F)c4[nH]ncc4c3)nc2N1C1CCOCC1 [compound 186, 3-[(7R)-2-[(7-fluoro-1H-indazol-5-yl)amino]-7-methyl-6-oxo-8-(tetrahydro-2H-pyran-4-yl)-7,8-dihydropteridin-5(6H)-yl]benzonitrile] |
| ≤ 100 nM | CC(C)CCN1c2nc(Nc3cc(F)c4[nH]c(=O)oc4c3)ncc2N(c2cccc(C#N)c2)C(=O)[C@H]1C [Example 90, 3-[(7R)-2-[(4-fluoro-2-oxo-2,3-dihydro-1,3-benzoxazol-6-yl)amino]-7-methyl-8-(3-methylbutyl)-6-oxo-7,8-dihydropteridin-5(6H)-yl]benzonitrile] |
| ≤ 100 nM | N#Cc1cccc(N2C(=O)[C@@H](CO)N(C3CCCC3)c3nc(Nc4cc(F)c5[nH]ncc5c4)ncc32)c1 [Example 218, 3-[(7R)-8-cyclopentyl-2-[(7-fluoro-1H-indazol-5-yl)amino]-7-(hydroxymethyl)-6-oxo-7,8-dihydropteridin-5(6H)-yl]benzonitrile] |
| ≤ 100 nM | CCOc1ccc(N2C(=O)[C@@H](C)N(C3CCC(F)(F)CC3)c3nc(Nc4cc(F)c5[nH]c(=O)oc5c4)ncc32)cc1C#N [compound 280, 5-[(7R)-8-(4,4-difluorocyclohexyl)-2-[(4-fluoro-2-oxo-2,3-dihydro-1,3-benzoxazol-6-yl)amino]-7-methyl-6-oxo-7,8-dihydropteridin-5(6H)-yl]-2-ethoxybenzonitrile] |
| ≤ 100 nM | C[C@@H]1C(=O)N(c2cccc(C#N)c2)c2cnc(Nc3cc(F)c4[nH]ncc4c3)nc2N1[C@H]1CC[C@H](C)CC1 [compound 237, 3-[(7R)-2-[(7-fluoro-1H-indazol-5-yl)amino]-7-methyl-8-(trans-4-methylcyclohexyl)-6-oxo-7,8-dihydropteridin-5(6H)-yl]benzonitrile] |
| ≤ 100 nM | C[C@@H]1C(=O)N(c2cccc(C#N)c2)c2cnc(Nc3cc(F)c4[nH]c(=O)oc4c3)nc2N1C1CCC(F)(F)CC1 [compound 277, 3-[(7R)-8-(4,4-difluorocyclohexyl)-2-[(4-fluoro-2-oxo-2,3-dihydro-1,3-benzoxazol-6-yl)amino]-7-methyl-6-oxo-7,8-dihydropteridin-5(6H)-yl]benzonitrile] |
